This note sets out measurements from US20170189496A1, “USE OF PHOSPHORYLATION PATHWAY-RELATED FACTOR IN REGULATING FUNCTION OF REGULATORY T CELL” (Institut Pasteur of Shanghai, Chinese Academy of Sciences, priority 2012, published 2017).

Series [1] concerns human CD4+ CD25+ CD127low natural Treg (nTreg). The series is described as follows: Flow cytometry of expanded nTreg treated with PIM1 inhibitor. In kind it is cell-based. The settings on record: 100 nM. The method, then:
After removal of Beads, DMSO or PIM1 inhibitor (100 nM) was added and treated for 24 h, followed by APC-FOXP3 and PE-CD25 antibody staining for flow cytometry analysis.
After human CD4+ CD25+ CD127^low natural Treg (nTreg) were sorted by BD FACS Aria II flow sorter, and expanded through Bead-CD3/CD28 and IL-2 (500 U/ml). DMSO or PIM1 inhibitor (4-[3-(4-chlorophenyl)-2,1-benzisoxazol-5-yl]-2-pyrimidinamine, 100 nM) was added and treated for 24 h. and the cells were stained with APC-FOXP3 and PE-CD25 antibody for flow cytometry analysis (results shown in FIG. 5A). The expanded nTreg were rested for 24 h. DMSO or PIM1 inhibitor (100 nM) was then added and treated for 48 h, followed by staining with APC-FOXP3 and PE-CD25 antibody for flow cytometry analysis (results shown in FIG. 5B).

A further series relates to nTreg cells. The experiment in a line: nTreg expansion, FACS detection of FOXP3 and CTLA4. Format: cell-based, human. The following applies: 100 nM; IL-2 500 U/ml, CD3/CD28 dynabeads 3:1; two weeks; vs control group. As to the method:
500 U/ml of IL-2 was added to 2×10^5 nTreg cells. nTreg cells were expanded using CD3/CD28 T cell dynabeads and cells at 3:1 ratio. After two weeks, part of expanded nTreg cells were collected for FACS detection. Dynabeads were removed from the remaining cells. After 48 h of rest, FOXP3 and CTLA4 cells were collected again by flow cytometry. The working concentrations of Rapamycin and PIM1 inhibitors are both 100 nM.
500 U/ml of IL-2 was added to 2×10^5 nTreg cells. nTreg cells were expanded at a 3:1 ratio of CD3/CD28 T cell dynabeads and cells. After two weeks, part of the expanded nTreg cells were collected for FACS detection. Dynabeads were removed from the remaining cells and rested for 48 h. Cells were collected again for FACS detection of FOXP3 and CTLA4.

Series [2] deals with nTreg mixed with CFSE-labeled human PBMC. The experiment in a line: nTreg immunosuppressive activity: proliferation of CFSE-labeled PBMC. The following applies: Treg:PBMC 1:2 or 1:4; Bead-CD3/CD28; 5 days; vs DMSO-treated group. Format: cell-based. The method, then:
The expanded nTreg were mixed with human CFSE-labeled PBMC (2×10^5 cells/well) in U-shaped wells of 96-well plate at corresponding proportion. 5000 T cell dynabeads conjugated with CD3/CD28 antibody were added. Cell proliferation levels were detected after two groups of cells treated with DMSO and PIM1 inhibitors, respectively, were incubated for five days.
Regulatory T cells were obtained from human peripheral blood mononuclear cells (purchased from Shanghai Blood Center) by antibody labeling and magnetic bead sorting. As mentioned above, after labeling effector T cells with 1 μM CFSE (Invitrogen), regulatory T cells and effector T cells were cultured for 80 h. Flow cytometry was used to detect fluorescence intensity changes in effector T cells, their proliferation status was analyzed.
The expanded nTreg were mixed with CFSE-labeled human PBMC (2×10^5 cells/well) at the corresponding ratio (i.e., PBMC only, Treg:PBMC=1:2 or 1:4, or Treg only) in 96-well U-shaped well. 5000 Bead-CD3/CD28 were added to each well. Two groups of cells were treated, respectively, with DMSO and PIM1 inhibitors, cultured for 5 days, followed by detection of cell proliferation levels (results shown in FIG. 6).

For series [3], the system named is Jurkat cells stably expressing HA-FOXP3. The series is described as follows: FOXP3 protein degradation induced by PMA/LPS in Jurkat cells stably expressing HA-FOXP3 (immunoblot). In kind it is cell-based. The settings on record: PMA 25 ng/ml + LPS 1 ng/ml, 24 h; kaempferol 50 μM, PIM1 inhibitor 100 nM, PI3K inhibitor 10 μg/ml; DMSO control. As to the method:
HA-FOXP3-Jurkat stable expression cells were treated with PMA (25 ng/ml) and LPS (1 ng/ml). 50 μM kaempferol, 100 nM PIM1 inhibitors (specifically of 4-[3-(4-chlorophenyl)-2,1-benzisoxazol-5-yl]-2-pyrimidinamine), and 10 μg/ml PI3K inhibitor (LY294002) were added, and DMSO as a control. Cells were collected 24 h later. The levels of FOXP3 and GAPDH were detected directly by immunoblot.
Human embryonic kidney cell line HEK293 was co-transfected with FUGW-HA-FOXP3, del 8.9 and VSV-G. Cell culture supernatants were collected 48 h and 72 h after transfection. Viruses were purified by ultracentrifugation and used to infect Jurkat E6.1 to ultimately obtain Jurkat cell lines stably expressing HA-FOXP3.
Protein samples were subjected to SDS-PAGE, and then transferred to nitrocellulose membrane, which was then sealed in TBST containing 5% nonfat dry milk or 3% bovine serum albumin for 1 h. Primary antibody was added and incubated for 1 h and then HRP-conjugated secondary antibody was added and incubated for 1 h, and results shown by exposure with ECL substrates.
Jurkat cells stably expressing HA-FOXP3 were treated with PMA (25 ng/ml) and LPS (1 ng/ml). Each sample was added 50 μM kaempferol, 100 nM PIM1 inhibitor (i.e., 4-[3-(4-chlorophenyl)-2,1-benzisoxazol-5-yl]-2-pyrimidinamine), and 10 μg/ml PI3K inhibitor (LY294002). DMSO serves as a control. Cells were collected after 24 h.
For orientation: Immunoblotting shows a protein as a band on a membrane.

Series [4] deals with SZ4.03 lymphocyte cell line that highly expresses FOXP3. The experiment in a line: Inflammatory cytokine induction of PIM1 expression in SZ4.03 cells (immunoblot). Format: cell-based. The settings on record: IL-6 20 ng/ml or IL-4 30 ng/ml; for PIM1 expression: 0 h, 1 h, 2 h, 4 h; for FOXP3 expression levels: 0-4 h. As to the method: SZ4.03 cells were treated with IL-6 (20 ng/ml) or IL-4 (30 ng/ml), respectively. After 0 h, 1 h, 2 h, and 4 h, cells were collected and lysed by boiling directly in SDS-Loading Buffer. Samples were then analyzed by immunoblot.
SZ4.03 cells (lymphocyte cell line that highly expresses FOXP3, kept in the present laboratory; also can be routinely obtained by one skilled in the art according to methods described in Reference 7) were cultured in 1640 culture medium containing 10% FBS, 100 units/ml penicillin-streptomycin, 100 units ml non-essential amino acids, and 100 units/ml sodium pyruvate, at 37° C. under 5% CO2.
After protein samples were subjected to SDS-PAGE, transferred to nitrocellulose membrane, sealed in TBST with 5% skim milk for 1 h, primary antibody was added and incubated for 1 h, then HRP-conjugated secondary antibody was added and incubated for 1 h, and results shown by exposure with ECL substrates.
SZ4.03 cells were treated with IL-6 (20 ng/ml) or IL-4 (30 ng/ml), respectively, for 0 h, 1 h, 2 h, and 4 h. Cells were collected and lysed by boiling directly in SDS sample buffer, and then samples were analyzed by immunoblot (primary antibodies are PIM1 antibody and FOXP3 antibody) (results shown in FIG. 2).

Series [5] relates to in vitro expanded natural regulatory T cells (nTreg). The experiment in a line: PIM1 protein expression in in vitro expanded nTreg under inflammatory cytokine stimulation. Format: cell-based.
Series [6] addresses T1, PIM1 (Homo sapiens, UniProt P11309). The series is described as follows: PIM shRNA lentivirus in primary nTreg, mRNA by quantitative PCR. Format: cell-based. Also on record: SZ4.03 cells that highly expresses FOXP3 were infected with viral vectors carrying the negative control shRNA (shCK) and PIM1 shRNA (shPIM1); endogenous in cells. The following applies: primary nTreg cells; 1 week culture after lentivirus infection. As to the method: Primary nTreg cells were activated with 500 U/ml of IL-2 and CD3/CD28 T cell dynabeads and cells at 3:1 ratio for 4 h, and, respectively, infected with lentivirus encoding PIM1, PIM2, and PIM3 shRNA overnight. Continued incubation for one week, the mRNA levels of FOXP3 and its target gene CTLA4 were detected by quantitative PCR.
500 U/ml of IL-2 was added to 2×10^5 nTreg cells. Primary nTreg cells were activated at a 3:1 ratio of CD3/CD28 T cell dynabeads and cells for 4 h, followed by infection of lentiviruses encoding PIM1, PIM2, and PIM3 shRNA overnight. Cells were cultured for 1 week without removing dynabeads, and then the mRNAs level of FOXP3 and its target gene CTLA4 were detected (results shown in FIG. 12).
(§1) shPIM1 primer sequences were designed as follows:
After annealing, the synthesized shRNA primer sequences were ligated into shRNA lentiviral expression vector pLKO.1 (purchased from Addgene). After mixed at a ratio of pLKO.1:dR8.9:VSVG=5:4:3, they were transfected into HEK 293T cells by calcium phosphate method. Viruses were collected 48 h after transfection. Virus suspensions, after low-speed centrifugation and filtration, were used directly to infect target cells.

Series [7] deals with T1, PIM1. The experiment in a line: shPIM1 knockdown in SZ4.03 cells, mRNA of FOXP3 target genes by quantitative PCR. In kind it is cell-based. Also on record: SZ4.03 cells that highly expresses FOXP3 were infected with viral vectors carrying the negative control shRNA (shCK) and PIM1 shRNA (shPIM1); endogenous in cells; host or cells: SZ4.03 lymphocyte cell line. The settings on record: vs control shCK. As to the method:
After 4 h, total RNA was extracted and converted to cDNA. PIM1 mRNA expression levels were then analyzed by quantitative PCR.
as §1
After annealing, the synthesized shRNA primer sequences were ligated into lentiviral shRNA expression vector pLKO.1 (purchased from Addgene). After mixed at a ratio of pLKO.1:dR8.9:VSVG=5:4:3, HEK 293T cells were transfected with the mixture using calcium phosphate method. Viruses were collected 48 h after transfection. After low-speed centrifugation and filtration, virus suspension was used directly to infect target cells.
SZ4.03 cells that highly expresses FOXP3 were infected with viral vectors carrying the negative control shRNA (shCK) and PIM1 shRNA (shPIM1) packaged using lentiviral packaging system, followed by puromycin (50 ng/ml) selection and DMSO or PMA/inomycin (P/I) for 4 h. Total RNA was extracted and reverse transcribed to cDNA.

The mark [8] stands for this setting: 24 h or 48 h, vs DMSO control group.

T1 sequence (P11309 whole entry): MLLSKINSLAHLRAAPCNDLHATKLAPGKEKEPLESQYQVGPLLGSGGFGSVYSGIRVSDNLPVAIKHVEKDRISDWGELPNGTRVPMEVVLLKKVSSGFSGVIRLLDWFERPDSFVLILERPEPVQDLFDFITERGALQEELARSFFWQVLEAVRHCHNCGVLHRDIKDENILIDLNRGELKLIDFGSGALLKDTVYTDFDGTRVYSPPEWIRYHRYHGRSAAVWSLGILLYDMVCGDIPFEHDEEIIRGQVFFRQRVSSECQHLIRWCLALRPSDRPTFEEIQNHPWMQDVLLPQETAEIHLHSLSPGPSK

Take `Nc1nccc(-c2ccc3noc(-c4ccc(Cl)cc4)c3c2)n1` [PIM1 inhibitor, 4-[3-(4-chlorophenyl)-2,1-benzisoxazol-5-yl]-2-pyrimidinamine]: in series [1], the FOXP3 expression levels result is “positively regulate”. For the same molecule, in series [1] (setting [8]), the “CD25+ FOXP3+ Treg cell levels” value is listed as “significantly increase” and the “CLTA4+ FOXP3+ Treg cell levels” value is on record as “significantly increase”. Also, the “FOXP3+ and CTLA4+ nTreg cell expansion” value in the series with nTreg cells is on record as “promote”. Also, in series [2], the PBMC proliferation entry is recorded as “inhibited more”. Further, the FOXP3 protein degradation result in series [3] was “can inhibit”.
In the case of “IL-6: inflammatory cytokine, purchased from Apotech”, in series [4], the PIM1 expression entry is on record as “gradually increases as treatment time increases” and the FOXP3 expression levels entry is recorded as “no significant difference”. Moreover, the “PIM1 protein expression levels” value in series [5] is recorded as “rapidly up-regulate”.

B1: IL-4: inflammatory cytokine, purchased from Apotech (protein, UniProt P05112 25-153, looked up)
Interleukin-4: HKCDITLQEIIKTLNSLTEQKTLCTELTVTDIFAASKNTTEKETFCRAATVLRQFYSHHEKDTRCLGATAQQFHRHKQLIRFLKRLDRNLWGLAGLNSCPVKEANQSTLENFLERLKTIMREKYSKCSS
For B1, in series [4], the PIM1 expression entry is reported as “gradually increases as treatment time increases” and the FOXP3 expression levels result is recorded as “no significant difference”. Besides, the “PIM1 protein expression levels” value in series [5] is “rapidly up-regulate”.

B2: shPIM1: PIM1 shRNA (SEQ ID NO: 3 and 4) in lentiviral vector pLKO.1 (nucleic acid)
sense: CCGGGATACTCTCTTCTTCTCATAGCTCGAGCTATGAGAAGAAGAGAGTATCTTTTT
antisense: AATTAAAAAGATACTCTCTTCTTCTCATAGCTCGAGCTATGAGAAGAAGAGAGTATC
For the molecule B2, the “mRNA levels of CTLA4” value with PIM1 [6] is recorded as “increase”. Besides, in the series with PIM1 [7], the “mRNA expression levels of FOXP3-negatively regulated target gene IL-2” value is “reduces”, the “mRNA expression levels of FOXP3-positively regulated target gene CTLA4” value is recorded as “enhances”, the “mRNA expression levels of FOXP3-positively regulated target gene GITR” value is “enhances” and the “mRNA expression levels of non-FOXP3 target gene STUB1” value is recorded as “does not affect”. The “mRNA expression levels of PIM1” value with PIM1 [7] (DMSO or PMA/inomycin 4 h) is listed as “significantly reduce”.
